Test system: equivalent dermis model constituted by a matrix of collagen seeded with normal human fibroblasts
Assay: Dermo-relaxant effect: spontaneous contraction of equivalent dermis (collagen matrix seeded with fibroblasts)
Type: cell-based
Conditions: adenosine 0.01%
Source text: The principle of this test is to study the relaxing effect of adenosine on an equivalent dermis model constituted by a matrix of collagen seeded with normal human fibroblasts.
These conditions were intended to imitate in vitro the dermal contractile phenomena which occur during facial expressions. Under these conditions, cells spontaneously express tensile forces which induce retraction of the collagen gel. […] Measuring that surface area allows the relaxation effects of substances that have been brought into contact with the equivalent dermis to be determined.
Two series of 3 attached equivalent dermises containing normal human fibroblasts were prepared: a control series with no treatment, and a series treated with adenosine (0.01%). The experiment was carried out three times.
The skin equivalents were prepared as described by Asselineau et al, Exp. Cell. Res., 1985, 159, 536-539; Models in Dermatology, 1987, vol 3, pp 1-7, in the following proportions:
The treated equivalent dermis differed from the control equivalent dermis in that 0.01% of adenosine had been added.
The collagen used was type I collagen (commercial solution), but it was also possible to use type III or IV collagen. It was extracted from rat tails or calf skin by acid hydrolysis and stored in an acidic medium at +4° C.; it polymerizes naturally by heating to 37° C. and by reducing the acidity. The collagen had been dialyzed against successive baths of water+acetic acid.
The following protocol was employed: the following were introduced into a sterile tube: 1.76×MEM medium in the presence of additives (glutamine 1%, non essential amino acids 1%, sodium pyruvate 1%, fungizone 1% and penicillin/streptomycin 1%), foetal calf serum, 0.1 N sodium hydroxide NaOH. Fibroblasts isolated from human skin explants were then added in a concentration of 1.4×10^5 cells per ml of culture medium.
A 1/1000 vol/vol mixture of collagen in acetic acid was then slowly added by pouring it down the tube wall so that the appearance of a whitish cloud was observed.
The ensemble was then carefully mixed and distributed into the wells of a 12-well culture plate (Costar, reference 3512) in an amount of 0.5 ml of mixture per cm^2. The culture plate was placed in an incubator at 37° C. with 5% CO2.
Once formed after polymerizing the collagen, the equivalent dermises were left adhering to the culture support for 3 days then detached from the support so that contraction could commence. […]
To this end, a digital image was acquired for each treated or untreated equivalent dermis using a camera (CCD Camera—Iris Sony DXC—107P) and the surface area was then calculated for each image using an image analysis system (Zeiss Axiovision 3.0). […]

## Nc1ncnc2c1ncn2[C@@H]1O[C@H](CO)[C@@H](O)[C@H]1O [Adenosine]
Conclusion in words
  relaxing effect on equivalent dermis: causes less contraction in an equivalent dermis
Eight hours after detachment from support
  reduction of contraction percentage compared with the control: 10.5%
Four hours after detachment from support
  reduction of contraction percentage compared with the control: 6.4%
twenty-four hours after detachment from support
  reduction of contraction percentage compared with the control: 12.7%

Reference: US20040146474A1, “Method for softening lines and relaxing the skin with adenosine and adenosine analogues” (L'OREAL, priority 2002, published 2004)
